From US12404262B2 (priority 2021, dated 2025)

Conditions: 1.0% DMSO, 24-hour incubation at ambient temperature, maximum theoretical 100 μM; for pH 2 solubility: 0.1N HCl, first value of the cell; for pH 7 solubility: 1×PBS buffer (pH 7.4), second value of the cell

| SMILES | pH 2 solubility | pH 7 solubility |
| --- | --- | --- |
| CC(C)(CO)C(=O)OCN(c1nn(CC(F)(F)F)c2c(-c3ccc(C#CC(C)(C)S(C)(=O)=O)nc3[C@H](Cc3cc(F)cc(F)c3)NC(=O)Cn3nc(C(F)(F)F)c4c3C(F)(F)[C@@H]3C[C@H]43)ccc(Cl)c12)S(C)(=O)=O [Compound 24, (N-(4-chloro-7-(2-((S)-1-(2-((3bS,4aR)-5,5-difluoro-3-(trifluoromethyl)-3b,4,4a,5-tetrahydro-1H-cyclopropa[3,4]cyclopenta[1,2-c]pyrazol-1-yl)acetamido)-2-(3,5-difluorophenyl)ethyl)-6-(3-methyl-3-(methylsulfonyl)but-1-yn-1-yl)pyridin-3-yl)-1-(2,2,2-trifluoroethyl)-1H-indazol-3-yl)methylsulfonamido)methyl 3-hydroxy-2,2-dimethylpropanoate] | 1/1 μM | 1/1 μM |
| CC(C)(COP(=O)(O)O)C(=O)OCN(c1nn(CC(F)(F)F)c2c(-c3ccc(C#CC(C)(C)S(C)(=O)=O)nc3[C@H](Cc3cc(F)cc(F)c3)NC(=O)Cn3nc(C(F)(F)F)c4c3C(F)(F)[C@@H]3C[C@H]43)ccc(Cl)c12)S(C)(=O)=O [Compound 25, (N-(4-chloro-7-(2-((S)-1-(2-((3bS,4aR)-5,5-difluoro-3-(trifluoromethyl)-3b,4,4a,5-tetrahydro-1H-cyclopropa[3,4]cyclopenta[1,2-c]pyrazol-1-yl)acetamido)-2-(3,5-difluorophenyl)ethyl)-6-(3-methyl-3-(methylsulfonyl)but-1-yn-1-yl)pyridin-3-yl)-1-(2,2,2-trifluoroethyl)-1H-indazol-3-yl)methylsulfonamido)methyl 2,2-dimethyl-3-(phosphonooxy)propanoate] | 1 μM | 73 μM |
| C[C@H](N)C(=O)OCN(c1nn(CC(F)(F)F)c2c(-c3ccc(C#CC(C)(C)S(C)(=O)=O)nc3[C@H](Cc3cc(F)cc(F)c3)NC(=O)Cn3nc(C(F)(F)F)c4c3C(F)(F)[C@@H]3C[C@H]43)ccc(Cl)c12)S(C)(=O)=O [Compound 27, (N-(4-chloro-7-(2-((S)-1-(2-((3bS,4aR)-5,5-difluoro-3-(trifluoromethyl)-3b,4,4a,5-tetrahydro-1H-cyclopropa[3,4]cyclopenta[1,2-c]pyrazol-1-yl)acetamido)-2-(3,5-difluorophenyl)ethyl)-6-(3-methyl-3-(methylsulfonyl)but-1-yn-1-yl)pyridin-3-yl)-1-(2,2,2-trifluoroethyl)-1H-indazol-3-yl)methylsulfonamido)methyl L-alaninate] | 20 μM | 2 μM |
| CC(C)[C@H](N)C(=O)OCN(c1nn(CC(F)(F)F)c2c(-c3ccc(C#CC(C)(C)S(C)(=O)=O)nc3[C@H](Cc3cc(F)cc(F)c3)NC(=O)Cn3nc(C(F)(F)F)c4c3C(F)(F)[C@@H]3C[C@H]43)ccc(Cl)c12)S(C)(=O)=O [Compound 28, (N-(4-chloro-7-(2-((S)-1-(2-((3bS,4aR)-5,5-difluoro-3-(trifluoromethyl)-3b,4,4a,5-tetrahydro-1H-cyclopropa[3,4]cyclopenta[1,2-c]pyrazol-1-yl)acetamido)-2-(3,5-difluorophenyl)ethyl)-6-(3-methyl-3-(methylsulfonyl)but-1-yn-1-yl)pyridin-3-yl)-1-(2,2,2-trifluoroethyl)-1H-indazol-3-yl)methylsulfonamido)methyl L-valinate] | 29 μM | 1 μM |
| CC(C)(C)C(=O)OCN(c1nn(CC(F)(F)F)c2c(-c3ccc(C#CC(C)(C)S(C)(=O)=O)nc3[C@H](Cc3cc(F)cc(F)c3)NC(=O)Cn3nc(C(F)(F)F)c4c3C(F)(F)[C@@H]3C[C@H]43)ccc(Cl)c12)S(C)(=O)=O [Compound 30, (N-(4-chloro-7-(2-((S)-1-(2-((3bS,4aR)-5,5-difluoro-3-(trifluoromethyl)-3b,4,4a,5-tetrahydro-1H-cyclopropa[3,4]cyclopenta[1,2-c]pyrazol-1-yl)acetamido)-2-(3,5-difluorophenyl)ethyl)-6-(3-methyl-3-(methylsulfonyl)but-1-yn-1-yl)pyridin-3-yl)-1-(2,2,2-trifluoroethyl)-1H-indazol-3-yl)methylsulfonamido)methyl pivalate] | 1/1 μM | 1/1 μM |
| CC(C)(O)CNC(=O)N(c1nn(CC(F)(F)F)c2c(-c3ccc(C#CC(C)(C)S(C)(=O)=O)nc3[C@H](Cc3cc(F)cc(F)c3)NC(=O)Cn3nc(C(F)(F)F)c4c3C(F)(F)[C@@H]3C[C@H]43)ccc(Cl)c12)S(C)(=O)=O [Compound 32, N—((S)-1-(3-(4-chloro-3-(N-((2-hydroxy-2-methylpropyl)carbamoyl)methylsulfonamido)-1-(2,2,2-trifluoroethyl)-1H-indazol-7-yl)-6-(3-methyl-3-(methylsulfonyl)but-1-yn-1-yl)pyridin-2-yl)-2-(3,5-difluorophenyl)ethyl)-2-((3bS,4aR)-5,5-difluoro-3-(trifluoromethyl)-3b,4,4a,5-tetrahydro-1H-cyclopropa[3,4]cyclopenta[1,2-c]pyrazol-1-yl)acetamide] | 1/1 μM | 1/1 μM |
| CC(C)(CNC(=O)N(c1nn(CC(F)(F)F)c2c(-c3ccc(C#CC(C)(C)S(C)(=O)=O)nc3[C@H](Cc3cc(F)cc(F)c3)NC(=O)Cn3nc(C(F)(F)F)c4c3C(F)(F)[C@@H]3C[C@H]43)ccc(Cl)c12)S(C)(=O)=O)OP(=O)(O)O [Compound 33, 1-(3-(4-chloro-7-(2-((S)-1-(2-((3bS,4aR)-5,5-difluoro-3-(trifluoromethyl)-3b,4,4a,5-tetrahydro-1H-cyclopropa[3,4]cyclopenta[1,2-c]pyrazol-1-yl)acetamido)-2-(3,5-difluorophenyl)ethyl)-6-(3-methyl-3-(methylsulfonyl)but-1-yn-1-yl)pyridin-3-yl)-1-(2,2,2-trifluoroethyl)-1H-indazol-3-yl)-3-(methylsulfonyl)ureido)-2-methylpropan-2-yl dihydrogen phosphate] | 6 μM | 16 μM |
| C[C@H](O)CNC(=O)N(c1nn(CC(F)(F)F)c2c(-c3ccc(C#CC(C)(C)S(C)(=O)=O)nc3[C@H](Cc3cc(F)cc(F)c3)NC(=O)Cn3nc(C(F)(F)F)c4c3C(F)(F)[C@@H]3C[C@H]43)ccc(Cl)c12)S(C)(=O)=O [Compound 34, N—((S)-1-(3-(4-chloro-3-(N—(((S)-2-hydroxypropyl)carbamoyl)methylsulfonamido)-1-(2,2,2-trifluoroethyl)-1H-indazol-7-yl)-6-(3-methyl-3-(methylsulfonyl)but-1-yn-1-yl)pyridin-2-yl)-2-(3,5-difluorophenyl)ethyl)-2-((3bS,4aR)-5,5-difluoro-3-(trifluoromethyl)-3b,4,4a,5-tetrahydro-1H-cyclopropa[3,4]cyclopenta[1,2-c]pyrazol-1-yl)acetamide] | 1 μM | 4 μM |
